Experimental data as given in US4782135A (priority 1983, dated 1988).
Where two headings read alike, the source gives them in different places.

What was measured:
equine rhinovirus (ER) = type: cell-based
coxsackie (COX) A21 = type: cell-based, coxsackie virus
P388 leukemia = assay: In vivo P388 mouse leukemia test; design: species or system mice
Source text: The P388 mouse leukemia test is described in detail in a publication by G. L. Neil, et. al., Cancer Treatment Reports 63, 1971-1978 (1979).
^a Schedule of Injection: daily intraperitoneal injection for 9 days
following tumor implantation.
^b Median survival time of control animals = 10.3 days.
^a Schedule of injection: Intraperitoneal injection on Day 1, 5, and
9, following Tumor inoculation.
^b Median survival time of Control (no drug) animals: 10.2 days.

[1] = test system: herpes simplex virus (HSV) type 1; type: cell-based, herpes simplex virus type 1
[2] = test system: herpes simplex virus (HSV) type 2; type: cell-based, herpes simplex virus type 2
[3] = test system: L1210 mouse leukemia cells; assay: L1210 tube dilution assay; type: cell-based; conditions: for ID50: concentration to inhibit L1210 cell growth by 50 percent; for ID90: concentration to inhibit L1210 cell growth by 90 percent
Source text: The L1210 tube dilution assay is described in detail in a publication by L. H. Li, et al., Cancer Research 39: 4816 (1979).

[4] = for Solubility in organic solvents: methanol, ethanol, isopropanol, dioxane, ethyl acetate, and chloroform
[5] = ML cells infected with equine rhinovirus
[6] = uninfected Vero cells, 50% cell destruction, overnight incubation
[7] = ML cells infected with coxsackie A21
[8] = 30 μg/kg/injection, i.p. on Day 1, 5 and 9
[9] = 60 μg/kg/injection, i.p. on Day 1, 5 and 9
[10] = 63 μg/kg/injection, daily i.p. for 9 days
[11] = 63 μg/kg/injection, daily i.p. for 9 days, control 10.3 days
[12] = 120 μg/kg/injection, i.p. on Day 1, 5 and 9
[13] = 125 μg/kg/injection, daily i.p. for 9 days
[14] = 125 μg/kg/injection, daily i.p. for 9 days, control 10.3 days
[15] = 250 μg/kg/injection, daily i.p. for 9 days
[16] = 250 μg/kg/injection, daily i.p. for 9 days, control 10.3 days
[17] = 250 μg/kg/injection, i.p. on Day 1, 5 and 9
[18] = 250 μg/kg/injection, i.p. on Day 1, 5 and 9, control 10.2 days
[19] = 500 μg/kg/injection, daily i.p. for 9 days
[20] = 500 μg/kg/injection, i.p. on Day 1, 5 and 9
[21] = 500 μg/kg/injection, i.p. on Day 1, 5 and 9, control 10.2 days
[22] = 1000 μg/kg/injection, i.p. on Day 1, 5 and 9
[23] = 1000 μg/kg/injection, i.p. on Day 1, 5 and 9, control 10.2 days
[24] = uninfected ML cells, 50% cell destruction, overnight incubation
[25] = 1000 μg/kg/injection, daily i.p. for 9 days
[26] = 2000 μg/kg/injection, daily i.p. for 9 days
[27] = 2000 μg/kg/injection, i.p. on Day 1, 5 and 9
[28] = 4000 μg/kg/injection, i.p. on Day 1, 5 and 9
[29] = 8000 μg/kg/injection, i.p. on Day 1, 5 and 9

For didemnin B, the “ID50 Antiviral-ER virus” value (equine rhinovirus (ER); [5]) was under 1.5 µg/mL, the “ID50 Toxicity-Vero cells” value (Vero cells; [6]) was 12 µg/mL and the “ID50 Antiviral-cox virus” value (coxsackie (COX) A21; [7]) was under 1.5 µg/mL. The T/C (P388 leukemia; [8]) was 125%, the “Weight Change” value (P388 leukemia; [8]) was “+1.6 g” and the “Median Survival Time” value (P388 leukemia; 30 μg/kg/injection, i.p. on Day 1, 5 and 9, control 10.2 days) was 12.8 days. The T/C (P388 leukemia; [9]) was 140%, the “Weight Change” value (P388 leukemia; [9]) was “+1.2 g” and the “Median Survival Time” value (P388 leukemia; 60 μg/kg/injection, i.p. on Day 1, 5 and 9, control 10.2 days) was 14.3 days. The T/C (P388 leukemia; [10]) was 143%, the “Weight Change” value (P388 leukemia; [10]) was “+0.1 g” and the “Median Survival Time” value (P388 leukemia; [11]) was 14.8 days. The T/C (P388 leukemia; [12]) was 147%, the “Weight Change” value (P388 leukemia; [12]) was “+0.2 g” and the “Median Survival Time” value (P388 leukemia; 120 μg/kg/injection, i.p. on Day 1, 5 and 9, control 10.2 days) was 15.0 days. The T/C (P388 leukemia; [13]) was 136%, the “Weight Change” value (P388 leukemia; [13]) was -0.6 g and the “Median Survival Time” value (P388 leukemia; [14]) was 14.0 days. The T/C (P388 leukemia; [15]) was 138%, the “Weight Change” value (P388 leukemia; [15]) was -2.2 g and the “Median Survival Time” value (P388 leukemia; [16]) was 14.2 days. For the same substance, the T/C (P388 leukemia; [17]) was 157%, the “Weight Change” value (P388 leukemia; [17]) was -0.5 g and the “Median Survival Time” value (P388 leukemia; [18]) was 16.0 days. For the same substance, the “Weight Change” value (P388 leukemia; [19]) was -3.4 g, the T/C (P388 leukemia; [20]) was 176% and the “Weight Change” value (P388 leukemia; [20]) was -1.7 g. For the same substance, the “Median Survival Time” value (P388 leukemia; [21]) was 18.0 days, the T/C (P388 leukemia; [22]) was 199% and the “Weight Change” value (P388 leukemia; [22]) was -3.8 g. The “Median Survival Time” value (P388 leukemia; [23]) was 20.3 days, the “Activity in vivo against P388 leukemia in mice” value (P388 leukemia) was “active” and the “Ratio (cytotoxic concentration ÷ antiviral concentration), HSV-1 virus” value (shortened to “Ratio … HSV-1 virus”) ([1]; Vero cells) was 8. The “ID50 Antiviral-HSV-1 virus” value ([1]; Vero cells infected with HSV-1) was 1.5 µg/mL, the “Ratio (cytotoxic concentration ÷ antiviral concentration), HSV-2 virus” value (shortened to “Ratio … HSV-2 virus”) ([2]; Vero cells) was 8 and the “ID50 Antiviral-HSV-2 virus” value ([2]; Vero cells infected with HSV-2) was 1.5 µg/mL. The ID50 [3] was 0.0018 µg/mL, the ID90 [3] was 0.0059 µg/mL and the “Inhibition of growth of L1210 mouse leukemia cells in vitro (words)” value (shortened to “Inhibition”) [3] was “inhibit the growth”. For the same substance, the “Inhibition” value ([3]; listed as didemnin B) was “inhibit”, the “Solubility in organic solvents” value [4] was “soluble” and the Solubility in toluene [4] was “sparingly soluble”. For the same substance, the Solubility in water [4] was “insoluble” and the “ID50 Toxicity-ML cells” value (ML cells; [24]) was under 1.5 µg/mL.

With didemnin A the “Ratio (cytotoxic concentration ÷ antiviral concentration), ER virus” value (equine rhinovirus (ER); ML cells) was 17, the “ID50 Antiviral-ER virus” value (equine rhinovirus (ER); [5]) was 1.5 µg/mL and the “ID50 Toxicity-Vero cells” value (Vero cells; [6]) was 50 µg/mL. For the same substance, the “Ratio (cytotoxic concentration ÷ antiviral concentration), cox virus” value (coxsackie (COX) A21; ML cells) was 17, the “ID50 Antiviral-cox virus” value (coxsackie (COX) A21; [7]) was 1.5 µg/mL and the T/C (P388 leukemia; [10]) was 104%. For the same substance, the “Weight Change” value (P388 leukemia; [10]) was “+0.9 g”, the “Median Survival Time” value (P388 leukemia; [11]) was 10.7 days and the T/C (P388 leukemia; [13]) was 115%. The “Weight Change” value (P388 leukemia; [13]) was “+1.4 g”, the “Median Survival Time” value (P388 leukemia; [14]) was 11.9 days and the T/C (P388 leukemia; [15]) was 119%. For the same substance, the “Weight Change” value (P388 leukemia; [15]) was “+1.0 g”, the “Median Survival Time” value (P388 leukemia; [16]) was 12.2 days and the T/C (P388 leukemia; [17]) was 109%. The “Weight Change” value (P388 leukemia; [17]) was “+1.7 g”, the “Median Survival Time” value (P388 leukemia; [18]) was 11.1 days and the T/C (P388 leukemia; [19]) was 129%. For the same substance, the “Weight Change” value (P388 leukemia; [19]) was “+0.9 g”, the “Median Survival Time” value (P388 leukemia; 500 μg/kg/injection, daily i.p. for 9 days, control 10.3 days) was 13.2 days and the T/C (P388 leukemia; [20]) was 118%. For the same substance, the “Weight Change” value (P388 leukemia; [20]) was “+1.6 g”, the “Median Survival Time” value (P388 leukemia; [21]) was 12.1 days and the T/C (P388 leukemia; [25]) was 158%. For the same substance, the “Weight Change” value (P388 leukemia; [25]) was “+0.3 g”, the “Median Survival Time” value (P388 leukemia; 1000 μg/kg/injection, daily i.p. for 9 days, control 10.3 days) was 16.2 days and the T/C (P388 leukemia; [22]) was 118%. The “Weight Change” value (P388 leukemia; [22]) was “+1.8 g”, the “Median Survival Time” value (P388 leukemia; [23]) was 12.1 days and the T/C (P388 leukemia; [26]) was 155%. The “Weight Change” value (P388 leukemia; [26]) was -0.2 g, the “Median Survival Time” value (P388 leukemia; 2000 μg/kg/injection, daily i.p. for 9 days, control 10.3 days) was 16.0 days and the T/C (P388 leukemia; [27]) was 121%. For the same substance, the “Weight Change” value (P388 leukemia; [27]) was “+2.0 g”, the “Median Survival Time” value (P388 leukemia; 2000 μg/kg/injection, i.p. on Day 1, 5 and 9, control 10.2 days) was 12.4 days and the T/C (P388 leukemia; [28]) was 130%. For the same substance, the “Weight Change” value (P388 leukemia; [28]) was “+1.3 g”, the “Median Survival Time” value (P388 leukemia; 4000 μg/kg/injection, i.p. on Day 1, 5 and 9, control 10.2 days) was 13.3 days and the T/C (P388 leukemia; [29]) was 140%. For the same substance, the “Weight Change” value (P388 leukemia; [29]) was “+0.8 g”, the “Median Survival Time” value (P388 leukemia; 8000 μg/kg/injection, i.p. on Day 1, 5 and 9, control 10.2 days) was 14.3 days and the “Activity in vivo against P388 leukemia in mice” value (P388 leukemia) was “active”. For the same substance, the “Ratio … HSV-1 virus” value ([1]; Vero cells) was 17, the “ID50 Antiviral-HSV-1 virus” value ([1]; Vero cells infected with HSV-1) was 3 µg/mL and the “Ratio … HSV-2 virus” value ([2]; Vero cells) was 33. For the same substance, the “ID50 Antiviral-HSV-2 virus” value ([2]; Vero cells infected with HSV-2) was 1.5 µg/mL, the ID50 [3] was 0.019 µg/mL and the ID90 [3] was 0.058 µg/mL. For the same substance, the “Inhibition” value [3] was “inhibit the growth”, the “Solubility in organic solvents” value [4] was “soluble” and the Solubility in toluene [4] was “sparingly soluble”. For the same substance, the Solubility in water [4] was “insoluble” and the “ID50 Toxicity-ML cells” value (ML cells; [24]) was 25 µg/mL.

In the case of didemnin C, the “ID50 Antiviral-ER virus” value (equine rhinovirus (ER)) is reported as under 1.5, the “Ratio (cytotoxic concentration ÷ antiviral concentration), ER virus” value (equine rhinovirus (ER)) is reported as over 4 and the “ID50 Toxicity-Vero cells” value (Vero cells) is reported as 50. For the same substance, the “ID50 Antiviral-cox virus” value (coxsackie (COX) A21) was under 1.5, the “Ratio (cytotoxic concentration ÷ antiviral concentration), cox virus” value (coxsackie (COX) A21) was over 4 and the “ID50 Antiviral-HSV-1 virus” value [1] was under 1.5. For the same substance, the “Ratio … HSV-1 virus” value [1] was over 33, the “ID50 Antiviral-HSV-2 virus” value [2] was under 1.5 and the “Ratio … HSV-2 virus” value [2] was over 33. The “ID50 Toxicity-ML cells” value (ML cells) was 6.
